US20060069132A1, “Azolecarboxamide herbicides” (priority 2004, published 2006)

Key:
[1] = system: large crabgrass; test: Test E pre-/postemergence herbicide test; format: in vivo, Digitaria sanguinalis; conditions: Preemergence
Excerpt: (§1) Seeds of plant species selected from bipinnate beggarticks (Bidens bipinnata L.), hairy beggarticks (Bidens radiata Thuill.), bermudagrass (Cynodon dactylon (L.) Pers.), Surinam grass (Urochloa decumbens (Staph) R. D. Webster, previously named Brachiaria decumbens Stapf), large crabgrass (Digitaria sanguinalis (L.) Scop.), green foxtail (Setaria viridis (L.) P. Beauv.), goosegrass (Eleusine indica (L.) Gaertn.), johnsongrass (Sorghum halepense (L.) Pers.), kochia (Kochia scoparia (L.) Schrad.), pitted morningglory (Ipomoea lacunosa L.), purple nutsedge (Cyperus rotundus L.), common ragweed (Ambrosia elatior L.), mustard (Brassica nigra (L.) W. D. J. Koch), guineagrass (Panicum maximum Jacq.), dallisgrass (Paspalum dilatatum Poir.), barnyardgrass (Echinochloa crus-galli (L). P. Beauv.), southern sandbur (Cenchrus echinatus L.), common sowthistle (Sonchus oleraceous L.), prickly sida (Sida spinosa L.), Italian ryegrass (Lolium multiflorum Lam.), common purslane (Portulaca oleracea L.), broadleaf signalgrass (Brachiaria platyphylla (Griseb.) Nash), common groundsel (Senecio vulgaris L.), common chickweed (Stellaria media (L.) Vill/Cyr.), tropical spiderwort (Commelina benghalensis L.), annual bluegrass (Poa annua L.), downy bromegrass (Bromus tectorum L.), itchgrass (Rottboellia cochinchinensis (L.) L.f.), quackgrass (Elytrigia repens (L.) Nevski), Canada horseweed (Erigeron Canadensis L.), field bindweed (Convolvulus arvensis L.), spotted spurge (Euphorbia maculata L.), common mallow (Malva sylvestris (=s silvestris) L.), and Russian thistle (Salsola kali L. ssp. Ruthenica (Iljin) Soo) were planted and treated preemergence with test chemicals formulated in a non-phytotoxic solvent mixture which included a surfactant.
(§2) At the same time, plants selected from these weed species were treated with postemergence applications of some of the test chemicals formulated in the same manner. Plants ranged in height from 2 to 18 cm (1- to 4-leaf stage) for postemergence treatments. Treated plants and controls were maintained in a greenhouse for 12 to 14 days, after which time all species were compared to controls and visually evaluated. Plant response ratings, summarized in Table E, are based on a scale of 0 to 100 where 0 is no effect and 100 is complete control. A dash (-) response means no test result.

[2] = system: pitted morningglory; test: Test E pre-/postemergence herbicide test; format: in vivo, Ipomoea lacunosa; conditions: Preemergence
Excerpt: as §1, §2

[3] = system: common ragweed; test: Test E pre-/postemergence herbicide test; format: in vivo, Ambrosia elatior; conditions: Preemergence
Excerpt: as §1, §2

[4] = system: dallisgrass; test: Test E pre-/postemergence herbicide test; format: in vivo, Paspalum dilatatum; conditions: Preemergence
Excerpt: as §1, §2

[5] = system: barnyardgrass; test: Test E pre-/postemergence herbicide test; format: in vivo, Echinochloa crus-galli; conditions: Preemergence
Excerpt: as §1, §2

[6] = system: Canada horseweed; test: Test E pre-/postemergence herbicide test; format: in vivo, Erigeron Canadensis; conditions: Preemergence
Excerpt: as §1, §2

[7] = system: field bindweed; test: Test E pre-/postemergence herbicide test; format: in vivo, Convolvulus arvensis; conditions: Preemergence
Excerpt: as §1, §2

[8] = system: common mallow; test: Test E pre-/postemergence herbicide test; format: in vivo, Malva sylvestris; conditions: Preemergence
Excerpt: as §1, §2

[9] = system: downy bromegrass; test: Test C postemergence herbicide test; format: in vivo, Bromus tectorum
Method in brief: (§3)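 Greenhouse test with a 12–14 day hold after application and visual comparison with controls. Emerged plants were 1- to 4-leaf stage (2–18 cm) when sprayed postemergence, and the paddy barnyardgrass was at 2 leaves under flooded conditions. 100 = complete control.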

[10] = system: wheat; test: Test C postemergence herbicide test; format: in vivo, Triticum aestivum
Method in brief: as §3

[11] = system: wild oat; test: Test C postemergence herbicide test; format: in vivo, Avenafatua
Method in brief: as §3

[12] = 250 g ai/ha, scale 0 (no effect) to 100 (complete control)
[13] = Postemergence, 500 g ai/ha, scale 0 to 100
[14] = Postemergence, 250 g ai/ha, scale 0 to 100, 0 no effect, 100 complete control
[15] = postemergence, 125 g ai/ha, scale 0 to 100
[16] = postemergence, 62 g ai/ha, scale 0 to 100
[17] = Postemergence, 500 g ai/ha, scale 0 to 100, 0 no effect, 100 complete control

SMILES	Bromegrass, Downy plant response rating [9, 13]	Plant response rating, Bromegrass, Downy [9, 14]	Plant response rating, Bromegrass, Downy [9, 15]	Plant response rating, Bromegrass, Downy [9, 16]	Wheat plant response rating [10, 13]	Plant response rating, Wheat [10, 14]	Plant response rating, Wheat [10, 15]	Plant response rating, Wheat [10, 16]	Oat, Wild plant response rating [11, 13]	Plant response rating, Oat, Wild [11, 14]	Plant response rating, Oat, Wild [11, 15]	Plant response rating, Oat, Wild [11, 16]	other results
CCc1nn(C(C)C)nc1C(=O)Nc1cccc(C(=O)N(C)CC)c1 [Compound 386]													Plant response rating, Crabgrass, Large ([1]; 125 g ai/ha, scale 0 to 100): 95; Plant response rating, Crabgrass, Large [1, 12]: 95; Plant response rating, Morningglory ([2]; 125 g ai/ha, scale 0 to 100): 20; Plant response rating, Morningglory [2, 12]: 40; Plant response rating, Ragweed ([3]; 125 g ai/ha, scale 0 to 100): 20; Plant response rating, Ragweed [3, 12]: 60; Plant response rating, Dallisgrass ([4]; 125 g ai/ha, scale 0 to 100): 70; Plant response rating, Dallisgrass [4, 12]: 75; Plant response rating, Barnyardgrass ([5]; 125 g ai/ha, scale 0 to 100): 80; Plant response rating, Barnyardgrass [5, 12]: 100; Plant response rating, Horseweed ([6]; 125 g ai/ha, scale 0 to 100): 75; Plant response rating, Horseweed [6, 12]: 95; Plant response rating, Bindweed, Field ([7]; 125 g ai/ha, scale 0 to 100): 20; Plant response rating, Bindweed, Field [7, 12]: 60; Plant response rating, Mallow ([8]; 125 g ai/ha, scale 0 to 100): 60; Plant response rating, Mallow [8, 12]: 70
CCn1nc(C2(C)CC2)cc1C(=O)Nc1cc(C(=O)N2CC=CC2)ccc1F [Compound 301]	40	40	40	40	40	55	45	40	60	75	65	45	
CCCCOc1cccc(NC(=O)c2cc(C(C)(C)C)nn2CC)c1 [Compound 137]	40	20	20	10	40	30	30	30	50	40	40	20	
CCn1nc(C(C)(C)C)cc1C(=O)Nc1cccc(OS(=O)(=O)CC)c1 [Compound 408]		55	45	40			30	30			55	45	Plant response rating, Bromegrass, Downy [9, 17]: 55; Plant response rating, Wheat [10, 17]: 40; Plant response rating, Oat, Wild [11, 17]: 70
